{"source": "patent EP1216701A1", "about": "“Process to increase the concentration of meiosis-activating sterols (MAS) in the cholesterol synthesis and the use of potent inhibitors in the process” (Schering Aktiengesellschaft, priority 2000, dated 2002)", "key": {"[1]": {"test_system": "HepG2 cells", "assay": "Accumulation of cholesterol precursors / C29-sterols (MAS) in HepG2 cells, GC/MS (SIM)", "assay_type": "cell-based, Human", "conditions": "for FF-MAS Dimethylst.-trien (482 m/z) / Methylst.-dien (470 m/z) / T-MAS Dimethylst.-dien (484 m/z): bile acids 160 µM, 12-h, mean ± SD, ratio to internal standard epicoprostanol; for Dienol (m/z 486) / Enol T-MAS (m/z 484) / Trienol FF-MAS (m/z 482): ± SD; for changes in the cholesterol precursor pattern: at 10 µM, compared to potent inhibitors, data not shown", "description": "(§1) Human hepatoma HepG2 cells were cultured to confluency in 60-mm dishes in phenol-red-free Dulbecco's modified Eagle's medium (DMEM) containing Pen-Strep (100 µg/ml), glucose (10 mM), sodium bicarbonate (45 mM) and glutamine (4 mM) supplemented with 10% fetal calf serum as described previously (24). At the beginning of the experiment the medium was changed to serum-free DMEM supplemented with 10% lipid-free \"controlled process serum replacement\" (CPSR-1). Compounds were added from ethanolic stock solutions to produce final ethanol concentrations of 0.1-0.3% v/v. Controls received the same amount of ethanol. Aminotriazole was added in an aqueous solution. Slices of rat testis (25 µm; 25-50 mg wet weight) were incubated under the same conditions in a shaking water bath (37°C). For isotopomer spectral analysis (ISA) of lathosterol, 1-^13C-acetate was added in an aqueous solution to a final concentration of 1 mM.\n(§2) Cells were washed three times with ice cold PBS (pH 7.4) (once with 2 mg/ml BSA and twice with PBS alone). Epicoprostanol (1 µg in 50 µl of hexane) was added as internal standard to each sample. Sterols were extracted in hexane/isopropanol (3:2 v/v; two times with 4 ml). After drying under nitrogen and alkaline hydrolysis (1 N NaOH in 80% ethanol, 1.5 h at 70°C), the sterols were extracted with cyclohexane (two times with 3 ml). After drying under nitrogen, sterols were converted to their trimethylsilyl (TMS) derivatives by adding 100 µl bis(trimethylsilyl)trifluoracetamide (Pierce)/n-decane (1:1; v/v) and heating for 1 h at 70°C in a conical glass tube. This solution (1-2 µl) was used for gas-chromatography/mass-spectrometry (GC/MS). Rat testes (0.05-0.15 g) were homogenized manually, and lipids were extracted in hexane/isopropanol (3:2 v/v; two times with 4 ml). The extracts were deproteinized with acetone (3 ml) and processed as described above. The observed sterol levels in testis were normalized to correspond to 0.1 g of tissue (wet weight).\n(§3) Gas-chromatography was done in the splitless mode with temperature programming as follows: 150°C for 1 min, followed by 20°C/min up to 260°C and 10°C/min up to 280°C (hold for 15 min). Mass spectral data were collected either in the full-scan mode (m/z 50-550) or by selective ion monitoring (SIM). For SIM analyses the electron multiplier voltage was raised by 300 V after the elution of lathosterol to increase the sensitivity of detection for lanosterol, dihydrolanosterol, methylsterols, dimethylsterols and plant sterols. The internal standard epicoprostanol was monitored at m/z 370. […] Peak integration was performed manually, and sterols were quantified from SIM analyses against the internal standard. Unless stated otherwise, MAS amounts are given as a percentage of the control."}, "[2]": {"test_system": "liver slices", "assay": "Influence of bile acids on methylsterols and dimethylsterols in liver slices", "assay_type": "cell-based", "conditions": "bile acids 160 µM for 9-h, n=2 for UDCA, CDCA, DCA, n=3 for CA and LCA, ratio to campesterol", "description": "as §2, §3"}, "[3]": {"target": "T1, Δ24-reductase (Homo sapiens, UniProt Q15392)", "T1 construct": "endogenous in cells; host or cells: HepG2", "T1 sequence (Q15392 23-516)": "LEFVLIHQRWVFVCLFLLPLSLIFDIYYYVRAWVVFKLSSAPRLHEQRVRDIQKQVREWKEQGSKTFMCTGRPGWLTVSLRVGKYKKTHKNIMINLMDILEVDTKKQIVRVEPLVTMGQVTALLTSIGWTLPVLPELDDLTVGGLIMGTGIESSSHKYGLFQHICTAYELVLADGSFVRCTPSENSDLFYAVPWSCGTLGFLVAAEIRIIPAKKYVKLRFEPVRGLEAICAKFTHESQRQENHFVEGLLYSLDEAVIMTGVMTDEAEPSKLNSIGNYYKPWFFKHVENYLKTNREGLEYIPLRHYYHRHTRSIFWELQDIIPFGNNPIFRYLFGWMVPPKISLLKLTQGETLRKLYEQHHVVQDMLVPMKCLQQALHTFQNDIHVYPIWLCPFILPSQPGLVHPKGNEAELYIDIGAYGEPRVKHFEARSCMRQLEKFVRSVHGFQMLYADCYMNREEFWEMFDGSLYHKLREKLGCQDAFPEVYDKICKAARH", "assay": "Δ24-reductase assay (conversion of lanosterol to dihydrolanosterol in the presence of miconazole)", "assay_type": "cell-based", "conditions": "HepG2 cells; conversion of lanosterol to dihydrolanosterol with added miconazole", "description": "HepG2 cells were incubated for 12 h with 10 µM simvastatin (a kind gift from M. Stapff (MSD, Germany)) to deplete cholesterol precursors. Thereafter, the medium was changed to one containing 10 µM simvastatin, 10 µM miconazole (an inhibitor of 14α-demethylation) and 6 µg/dish lanosterol. After 12 h incubation, neutral sterols were extracted as described above, and the samples were monitored for lanosterol (m/z 498 (M^+) and m/z 393 (M-TMSOH-CH3)) and dihydrolanosterol (m/z 500 (M^+) and m/z 395 (M-TMSOH-CH3)) by GC/MS. Dihydrolanosterol was quantified by comparing the ratio of SIM abundances at m/z 395 and 370 (epicoprostanol) against a standard curve constructed from SIM results on mixtures of authentic dihydrolanosterol and epicoprostanol. Desmosterol was quantified analogously by SIM."}, "[4]": {"test_system": "HepG2 cells", "assay": "Isotopomer spectral analysis (ISA) of flux of 13C-acetate to lathosterol and cholesterol", "assay_type": "cell-based, Human", "conditions": "10 µM, 12 h, 1 mM 1-13C-acetate", "description": "as §1\nAnalyses were performed on a Hewlett-Packard GC/MS system (5890 series II GC interfaced to a 5971 mass selective detector) equipped with a DB-XLB column (30 m x 0.25 mm i.d. x 0.25 µm film; J&W). Gas-chromatography was done in the splitless mode with temperature programming as follows: 150°C for 1 min, followed by 20°C/min up to 260°C and 10°C/min up to 280°C (hold for 15 min). Mass spectral data were collected either in the full-scan mode (m/z 50-550) or by selective ion monitoring (SIM). For SIM analyses the electron multiplier voltage was raised by 300 V after the elution of lathosterol to increase the sensitivity of detection for lanosterol, dihydrolanosterol, methylsterols, dimethylsterols and plant sterols. The internal standard epicoprostanol was monitored at m/z 370. In unlabeled experiments, cholesterol precursors and plant sterols were monitored by the following ions: desmosterol (m/z 456; 441 and 351); Δ8-cholestenol (m/z 458); lathosterol (m/z 458); monounsaturated methylsterols (m/z 472); diunsaturated methylsterols (m/z 470); monounsaturated dimethylsterols (m/z 486); diunsaturated dimethylsterols (m/z 484); triunsaturated dimethylsterols (m/z 482); lanosterol (m/z 498 and 393) and dihydrolanosterol (m/z 500 and 395). Peak integration was performed manually, and sterols were quantified from SIM analyses against the internal standard. Unless stated otherwise, MAS amounts are given as a percentage of the control. When 1-^13C-acetate was used in the culture medium for ISA, up to 10 ions (M+0- M+10) were monitored for the TMS derivatives of lathosterol (m/z 458-468), T-MAS (m/z 484-494) and FF-MAS (m/z 482-492).\nISA was carried out as described previously (25) by incubating cells with 1-13C-acetate. The isotopomer distribution in sterols synthesized from 1-^13C-acetate provided the fractional synthesis rate g(t) of the product and the enrichment D of the labeled precursor pool. These parameters were calculated by nonlinear regression analysis as described previously (25,26). Because here we used the molecular ions containing the TMS group for the ISA calculations, the ISA program was modified to correct for the additional C, H and Si atoms from the derivatization reagent. Statistical differences were assessed by Student's t-test and considered significant for P<0.05."}, "[5]": {"conditions": "HepG2 cells, aminotriazole 20000 µM, tamoxifen 1 µM, combination 20000 + 1 µM, incubation time not clearly stated"}, "[6]": {"conditions": "HepG2 cells, Conc. 1 µM (combinations 1 + 1 µM), 24 h, n=3"}, "[7]": {"conditions": "HepG2 cells, Conc. 10 µM (combinations 10 + 10 µM), 12 h, n=2"}}}
{"compound": "C[C@H](CCC(=O)O)[C@H]1CC[C@H]2[C@@H]3[C@H](O)C[C@@H]4C[C@H](O)CC[C@]4(C)[C@H]3CC[C@]12C", "note": "[CDCA, Chenodeoxycholic acid]", "values": [{"measurement": "FF-MAS Dimethylst.-trien (482 m/z)", "setting": "[1]; HepG2 cells, n=3", "result": "197 ± 10 % of control"}, {"measurement": "Methylst.-dien (470 m/z)", "setting": "[1]; HepG2 cells, n=3", "result": "187 ± 5 % of control"}, {"measurement": "T-MAS Dimethylst.-dien (484 m/z)", "setting": "[1]; HepG2 cells, n=3", "result": "234 ± 11 % of control"}, {"measurement": "FF-MAS Dimethylst.-trien (482 m/z)", "setting": "[2]", "result": "128 % of control"}, {"measurement": "Methylst.-dien (470 m/z)", "setting": "[2]", "result": "181 % of control"}, {"measurement": "T-MAS Dimethylst.-dien (484 m/z)", "setting": "[2]", "result": "296 % of control"}]}
{"compound": "Nc1nc[nH]n1", "note": "[Aminotriazole]", "values": [{"measurement": "Dienol (m/z 486)", "setting": "[1]; [5]", "result": "725 ± 65 % of control"}, {"measurement": "Enol T-MAS (m/z 484)", "setting": "[1]; [5]", "result": "610 ± 20 % of control"}, {"measurement": "Trienol FF-MAS (m/z 482)", "setting": "[1]; [5]", "result": "229 ± 18 % of control"}]}
{"compound": "CC(=O)[C@H]1CC[C@H]2[C@@H]3CC=C4C[C@@H](O)CC[C@]4(C)[C@H]3CC[C@]12C", "note": "[Pregnenolone]", "values": [{"measurement": "order of suppression of Δ24 reduction", "setting": "[3]", "result": "pregnenolone > progesterone > 17α-OH-pregnenolone >> 17α-OH-progesterone"}, {"measurement": "lowering of the total amount of lathosterol", "setting": "[4]", "result": "ca. 50%"}, {"measurement": "reduction of de novo lathosterol synthesis", "setting": "[4]", "result": "more than 60%"}, {"measurement": "Dienol (m/z 486)", "setting": "[1]; [6]", "result": "110 ± 9 % of control"}, {"measurement": "Enol T-MAS (m/z 484)", "setting": "[1]; [6]", "result": "223 ± 11 % of control"}, {"measurement": "Trienol FF-MAS (m/z 482)", "setting": "[1]; [6]", "result": "166 ± 28 % of control"}, {"measurement": "Dienol (m/z 486)", "setting": "[1]; [7]", "result": "4 ± 1 % of control"}, {"measurement": "Enol T-MAS (m/z 484)", "setting": "[1]; [7]", "result": "308 ± 40 % of control"}, {"measurement": "Trienol FF-MAS (m/z 482)", "setting": "[1]; [7]", "result": "213 ± 15 % of control"}, {"measurement": "suppression of the Δ24 reduction step (accumulation of desmosterol)", "setting": "[1]; HepG2 cells, absence of miconazole, 10 µM potent inhibitors or 1 µM tamoxifen for 12 h", "result": "strongly suppressed"}]}
{"compound": "C[C@]12CCC(=O)C=C1CC[C@@H]1[C@@H]2CC[C@]2(C)C(=O)CC[C@@H]12", "note": "[androstenedione, 4-Androsten-3,17-dione]", "values": [{"measurement": "changes in the cholesterol precursor pattern", "setting": "[1]; HepG2 cells", "result": "only minor changes"}]}
{"compound": "C[C@H](CCC(=O)O)[C@H]1CC[C@H]2[C@@H]3CC[C@@H]4C[C@H](O)CC[C@]4(C)[C@H]3C[C@H](O)[C@]12C", "note": "[DCA, Deoxycholic acid]", "values": [{"measurement": "FF-MAS Dimethylst.-trien (482 m/z)", "setting": "[1]; HepG2 cells, n=3", "result": "226 ± 17 % of control"}, {"measurement": "Methylst.-dien (470 m/z)", "setting": "[1]; HepG2 cells, n=3", "result": "211 ± 6 % of control"}, {"measurement": "T-MAS Dimethylst.-dien (484 m/z)", "setting": "[1]; HepG2 cells, n=3", "result": "320 ± 32 % of control"}, {"measurement": "FF-MAS Dimethylst.-trien (482 m/z)", "setting": "[2]", "result": "103 % of control"}, {"measurement": "Methylst.-dien (470 m/z)", "setting": "[2]", "result": "144 % of control"}, {"measurement": "T-MAS Dimethylst.-dien (484 m/z)", "setting": "[2]", "result": "210 % of control"}]}
{"compound": "C[C@]12CC[C@@H]3c4ccc(O)cc4CC[C@H]3[C@@H]1CC[C@@H]2O", "note": "[β-estradiol, 17β-Estradiol]", "values": [{"measurement": "changes in the cholesterol precursor pattern", "setting": "[1]; HepG2 cells", "result": "only minor changes"}, {"measurement": "effect on the accumulation of cholesterol precursors observed with progesterone alone", "setting": "[1]; β-estradiol 10 µM in combination with progesterone 10 µM", "result": "did not alter"}]}
{"compound": "COc1ccc(CCN(C)CCCC(C#N)(c2ccc(OC)c(OC)c2)C(C)C)cc1OC", "note": "(stereo not shown) [Verapamil]", "values": [{"measurement": "Dienol (m/z 486)", "setting": "[1]; [7]", "result": "18 ± 4 % of control"}, {"measurement": "Enol T-MAS (m/z 484)", "setting": "[1]; [7]", "result": "416 ± 79 % of control"}, {"measurement": "Trienol FF-MAS (m/z 482)", "setting": "[1]; [7]", "result": "498 ± 103 % of control"}]}
